# Measurements from article PMC11048155, “Antiviral Drug Candidate Repositioning for Streptococcus suis Infection in Non-Tumorigenic Cell Models” (Biomedicines, 2024).
# Entries after “also recorded” stand apart in the source; their conditions may differ.
# Tests used:
# [1] = test system: Pseudomonas (P.) aeruginosa (ATCC 27853); assay: MIC measurement (broth microdilution); format: cell-based; conditions: source ATCC, 18–24 h at 37 °C
# [2] = test system: Salmonella (S.) enterica (clinical isolate); assay: MIC measurement (broth microdilution); format: cell-based; conditions: source 204/22, 18–24 h at 37 °C
# Source text: Bacterial strains used in this study were as follows: S. suis serotype 2 (ATCC 958242) Staphylococcus (S.) aureus (ATCC 10832), Escherichia (E.) coli (ATCC 11775), Pseudomonas (P.) aeruginosa (ATCC 27853), Pasteurella (P.) multocida (clinical isolate), Burkholderia (B.) cepacia (clinical isolate), Salmonella (S.) enterica (clinical isolate), and Enterococcus (E.) faecalis (clinical isolate). Of the clinical isolates used in this study, P. multocida is of porcine origin, B. cepacia is of human origin, and S. enterica and E. faecalis are of poultry origin. The bacterial strains were stored in the Microbiology Laboratory of the University of Veterinary Medicine, Budapest, at a temperature of −80 °C. Bacterial strains were inoculated the day before the test in 5 mL of Cation-Adjusted Mueller–Hinton Broth (CAMHB) and incubated for 18–24 h at 37 °C. The initial inoculum concentration used for the MIC assay was 5 × 10^5/mL. All wells except the first column of the working plates were filled with 90 µL CAMHB. A stock solution of inhibitors at 800 µM was then prepared, 180 µL of which was measured into the first column of plates and used to prepare a 2-based dilution on 96-well plates. After the 10th column, the tips were discarded with the 90 µL excess solution so that each column contained 90 µL of solution. Each bacterial strain was tested in a single row on the working plates. A bacterial suspension diluted to 25× was prepared on an auxiliary plate for bacterial inoculation by loading 240 µL of TSB per column of plates and adding 10–10 µL of bacterial strain suspension per well. In the next step, the isolated bacterial strains were inoculated onto the plates. Starting from column 11 (positive control) of the plates containing dilution row 2, 10 µL of bacterial suspension was added to each well, working backward. Column 11 served as a positive control (containing only bacterial suspension and broth), while column 12 served as a negative control (containing only broth). The microplates were then incubated at 37 °C for 18–24 h, and the MIC values were assessed in comparison to positive controls.
# [3] = test system: Pasteurella (P.) multocida (clinical isolate); assay: MIC measurement (broth microdilution); format: cell-based; conditions: source 380/22, 18–24 h at 37 °C
# [4] = test system: Staphylococcus (S.) aureus (ATCC 10832); assay: MIC measurement (broth microdilution); format: cell-based; conditions: source ATCC, 18–24 h at 37 °C, read-out: MIC
# [5] = test system: Burkholderia (B.) cepacia (clinical isolate); assay: MIC measurement (broth microdilution); format: cell-based; conditions: B. cepacia, source 20-10299; 18–24 h at 37 °C; read-out: MIC
# CYP1A2 = target: T1, CYP1A2 (Homo sapiens, UniProt P05177); assay: CYP enzyme fluorometric activity measurement, human hepatic microsomes; conditions: inhibitor 50 µM, human microsomes, 15 min; p > 0.05
# T1 sequence (P05177 1-516): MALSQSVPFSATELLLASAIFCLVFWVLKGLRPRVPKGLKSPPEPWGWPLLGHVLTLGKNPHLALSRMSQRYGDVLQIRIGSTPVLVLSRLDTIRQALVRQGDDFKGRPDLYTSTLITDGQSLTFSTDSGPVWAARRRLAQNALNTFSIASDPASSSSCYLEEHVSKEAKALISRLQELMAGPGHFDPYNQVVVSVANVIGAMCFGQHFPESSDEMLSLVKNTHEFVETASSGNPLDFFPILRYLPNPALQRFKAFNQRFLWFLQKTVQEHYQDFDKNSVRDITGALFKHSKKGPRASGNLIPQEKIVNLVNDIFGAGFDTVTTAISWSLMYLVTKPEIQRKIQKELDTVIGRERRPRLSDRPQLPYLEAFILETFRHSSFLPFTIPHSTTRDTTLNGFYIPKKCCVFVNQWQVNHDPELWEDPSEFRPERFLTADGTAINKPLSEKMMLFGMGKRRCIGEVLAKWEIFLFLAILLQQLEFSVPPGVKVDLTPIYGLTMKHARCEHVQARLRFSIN
# Experimental: (§1) The Biovision CYP assays (BioVision, Inc., Kampenhout, Belgium) employ non-fluorescent CYP2D6, 2C9, 2C19, 1A2, or 3A4 substrates able to undergo transformation into highly fluorescent detectable metabolites. […] Human hepatic microsomal supernatants were prepared (Gibco, Biocentre, Szeged, Hungary protein concentration: 20 mg/mL) separately by mixing 30 µL with 2425 µL assay buffer and with 50 µL nicotinamide adenine dinucleotide phosphate (NADPH) generating system (100×). […] Control measurements were performed in the absence of the inhibitors.
# (§2) In background controls, only assay buffer excluding microsomes and test compounds was used in a volume of 70 µL. Subsequently, after incubation at 37 °C for 15 min, 30 µL of the suitable CYP substrate/NADP+ mixture was incorporated into each well, resulting in a final reaction volume of 100 µL/well. The obtained microsomal protein content was assessed using the bicinchoninic acid protein assay kit (Pierce BCA kit, Thermo Fisher Scientific, Waltham, MA, USA). In each assay, the microsomal protein concentration was calibrated to 100 µg/well. The fluorescence intensities were measured with a fluorometer (Victor X2 2030, Perkin Elmer, Waltham, MA, USA) using λex/em = 406/468 nm for CYP1A2 and for CYP2C19, λex/em = 415/502 nm for CYP2C9, λex/em = 390/468 nm for CYP2D6, and λex/em = 535/587 nm for CYP3A4 assays.
# CYP3A4 = CYP3A4 (Homo sapiens, UniProt P08684); assay: as above; conditions: human microsomal preparations, 15 min, 37 °C, p < 0.0001
# Sequence of CYP3A4 (P08684 whole entry): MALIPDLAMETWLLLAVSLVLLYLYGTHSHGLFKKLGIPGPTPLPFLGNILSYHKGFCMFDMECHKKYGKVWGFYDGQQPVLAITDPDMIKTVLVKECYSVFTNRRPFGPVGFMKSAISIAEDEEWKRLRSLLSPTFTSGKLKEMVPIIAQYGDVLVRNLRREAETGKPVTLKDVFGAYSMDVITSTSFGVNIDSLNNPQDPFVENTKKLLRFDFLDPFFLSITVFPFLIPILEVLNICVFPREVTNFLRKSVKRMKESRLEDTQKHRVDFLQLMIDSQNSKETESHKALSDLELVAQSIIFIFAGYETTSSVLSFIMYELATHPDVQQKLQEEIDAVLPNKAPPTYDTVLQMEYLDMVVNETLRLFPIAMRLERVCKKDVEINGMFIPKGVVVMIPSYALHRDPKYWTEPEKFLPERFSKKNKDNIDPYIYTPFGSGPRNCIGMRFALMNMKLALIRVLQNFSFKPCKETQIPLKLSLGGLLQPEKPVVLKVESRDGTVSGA
# Experimental: as §1, §2
# CYP2C19 = target: T2, CYP2C19 (Homo sapiens, UniProt P33261); assay: as above; format: in vitro ADME; conditions: inhibitor 50 µM, 15 min, p > 0.05
# T2 construct: Human hepatic microsomal supernatants were prepared; tissue Gibco; host or cells: human liver microsomes
# T2 sequence (P33261 whole entry): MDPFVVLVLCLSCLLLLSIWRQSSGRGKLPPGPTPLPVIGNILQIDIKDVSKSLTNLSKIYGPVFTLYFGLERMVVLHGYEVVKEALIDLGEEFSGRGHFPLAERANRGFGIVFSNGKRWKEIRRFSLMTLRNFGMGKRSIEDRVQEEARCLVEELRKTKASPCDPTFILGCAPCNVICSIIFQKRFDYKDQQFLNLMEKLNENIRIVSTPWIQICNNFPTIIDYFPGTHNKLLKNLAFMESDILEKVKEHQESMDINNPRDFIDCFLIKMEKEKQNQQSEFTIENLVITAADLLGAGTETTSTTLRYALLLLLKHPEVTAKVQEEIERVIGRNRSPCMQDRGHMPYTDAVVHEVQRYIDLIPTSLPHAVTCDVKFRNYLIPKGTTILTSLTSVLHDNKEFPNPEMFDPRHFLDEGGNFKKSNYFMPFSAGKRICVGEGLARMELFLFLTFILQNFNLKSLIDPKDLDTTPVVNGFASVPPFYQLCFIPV
# IPEC-J2 cells = assay: EC H2O2 production, Amplex red method; format: cell-based, porcine; conditions: 24 h
# Experimental: For oxidative status measurements, inhibitors MI-432, MI-471, or MI-476 were used at 50 µM in the absence and presence of S. suis for 24 h in IPEC-J2 cells and in primary porcine hepatocytes on 24-well plates. An Amplex red hydrogen peroxide assay kit was used to monitor EC hydrogen peroxide (H₂O₂) production in IPEC-J2 cells and in hepatocytes. Following the manufacturer’s instructions, cell-free supernatants were collected and mixed with the Amplex red working solution (in a ratio of 1:1). A Victor X2 2030 fluorometer was used to detect fluorescence intensity at wavelengths 530 nm and 590 nm for excitation and emission, respectively.
# [6] = IPEC-J2, S. suis 10^4 CFU/mL in combination with inhibitor 50 µM
SMILES,MIC [1],MIC [2],MIC [3],MIC [4],MIC [5],CYP1A2 activity (CYP1A2),CYP3A4 isoenzyme activity (CYP3A4; inhibitor 10 µM),CYP3A4 isoenzyme activity (CYP3A4; inhibitor 25 µM),CYP3A4 isoenzyme activity (CYP3A4; inhibitor 50 µM),CYP2C19 activity (CYP2C19),EC H2O2 production (IPEC-J2 cells; [6]),"EC H2O2 production (IPEC-J2 cells; IPEC-J2, inhibitor alone 50 µM)"
N=C(N)c1cccc(C[C@H](NS(=O)(=O)c2cccc(-c3ccc(Cl)cc3Cl)c2)C(=O)N2CCC(N)CC2)c1 [MI-471],> 800 µM,> 800 µM,50 µM,100 µM,400 µM,No significant inhibitory effects,mitigated,mitigated,mitigated,No significant inhibitory effects,significant increase; also recorded: significant elevation in H2O2 levels,unchanged H₂O₂ production
N=C(N)c1cccc(C[C@H](NS(=O)(=O)c2cccc(-c3ccc(Cl)cc3Cl)c2)C(=O)N2CCC(CN)CC2)c1 [MI-476],> 800 µM,> 800 µM,50 µM,100 µM,400 µM,No significant inhibitory effects,mitigated,mitigated,mitigated,No significant inhibitory effects,unchanged H₂O₂ production; also recorded: antioxidant properties,unchanged H₂O₂ production
